In PubChem BioAssay AID1963846 (Molecular Pharmacology Branch, DTP, NCI, 2024):

Test system: 454973-116-R2-J3-PDC complex spheroid viability
Test: Anticancer human tumor 454973-116-R2-J3-PDC patient-derived pancreatic carcinoma cell line growth inhibition [POLQ]
Details: for IC50: curve of first compound; for viability, T/C: stronger effect = lower value
In short: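 Growth inhibition in 3D: complex spheroids (tumor PDC, HUVEC, MSC) treated with POLQ inhibitor combinations; where Cmax unknown, highest tested concentration 10 microM, except SN-38 at 1 microM.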

[1] = second compound 0.0316 µM, first compound 0.0316 µM
[2] = second compound 0.0316 µM, first compound 0.1 µM
[3] = second compound 0.0316 µM, first compound 0.316 µM
[4] = second compound 0.0316 µM, first compound 1 µM
[5] = second compound 0.0316 µM, first compound 3.16 µM
[6] = second compound 0.0316 µM, first compound 10 µM
[7] = second compound 0.1 µM, first compound 0.0316 µM
[8] = second compound 0.1 µM, first compound 0.1 µM
[9] = second compound 0.1 µM, first compound 0.316 µM
[10] = second compound 0.1 µM, first compound 1 µM
[11] = second compound 0.1 µM, first compound 3.16 µM
[12] = second compound 0.1 µM, first compound 10 µM
[13] = second compound 0.316 µM, first compound 0.0316 µM
[14] = second compound 0.316 µM, first compound 0.1 µM
[15] = second compound 0.316 µM, first compound 0.316 µM
[16] = second compound 0.316 µM, first compound 1 µM
[17] = second compound 0.316 µM, first compound 3.16 µM
[18] = second compound 0.316 µM, first compound 10 µM
[19] = second compound 1 µM, first compound 0.0316 µM
[20] = second compound 1 µM, first compound 0.1 µM
[21] = second compound 1 µM, first compound 0.316 µM
[22] = second compound 1 µM, first compound 1 µM
[23] = second compound 1 µM, first compound 3.16 µM
[24] = second compound 1 µM, first compound 10 µM
[25] = second compound 3.16 µM, first compound 0.0316 µM
[26] = second compound 3.16 µM, first compound 0.1 µM
[27] = second compound 3.16 µM, first compound 0.316 µM
[28] = second compound 3.16 µM, first compound 1 µM
[29] = second compound 3.16 µM, first compound 3.16 µM
[30] = second compound 3.16 µM, first compound 10 µM
[31] = second compound 10 µM, first compound 0.0316 µM
[32] = second compound 10 µM, first compound 0.1 µM
[33] = second compound 10 µM, first compound 0.316 µM
[34] = second compound 10 µM, first compound 1 µM
[35] = second compound 10 µM, first compound 3.16 µM
[36] = second compound 10 µM, first compound 10 µM
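Note: spheroids exposed to drugs for seven days before measurement.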
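Throughout, for viability, T/C: percent viability relative to DMSO vehicle control wells taken as 100%.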

For `O=c1[nH]cc(F)c(=O)[nH]1` + Cc1cccc(N(C)C(=O)C2C(O)CCN2c2nc(C)cc(C(F)(F)F)c2C#N)c1, the IC50 (second compound 0.0316 µM) was 2.93 µM, the IC50 (second compound 0.1 µM) was 2.68 µM and the IC50 (second compound 0.316 µM) was 2.56 µM. It also gave an IC50 (second compound 1 µM) of 2.57 µM, an IC50 (second compound 3.16 µM) of 2.53 µM and an IC50 (second compound 10 µM) of 2.54 µM. For the same compound, the viability, T/C [1] was 99.3%, the viability, T/C [2] was 104% and the viability, T/C [3] was 98.1%. The viability, T/C [4] was 104%, the viability, T/C [5] was 46.3% and the viability, T/C [6] was 30.7%. It also gave a viability, T/C [7] of 109%, a viability, T/C [8] of 108% and a viability, T/C [9] of 111%. It also gave a viability, T/C [10] of 102%, a viability, T/C [11] of 41.1% and a viability, T/C [12] of 33.1%. It also gave a viability, T/C [13] of 107%, a viability, T/C [14] of 115% and a viability, T/C [15] of 123%. It also gave a viability, T/C [16] of 96.9%, a viability, T/C [17] of 40.1% and a viability, T/C [18] of 37%. The viability, T/C [19] was 119%, the viability, T/C [20] was 112% and the viability, T/C [21] was 112%. The viability, T/C [22] was 95%, the viability, T/C [23] was 40% and the viability, T/C [24] was 31.6%. It also gave a viability, T/C [25] of 116%, a viability, T/C [26] of 118% and a viability, T/C [27] of 108%. For the same compound, the viability, T/C [28] was 93.4%, the viability, T/C [29] was 38.9% and the viability, T/C [30] was 32%. The viability, T/C [31] was 116%, the viability, T/C [32] was 108% and the viability, T/C [33] was 104%. For the same compound, the viability, T/C [34] was 92.2%, the viability, T/C [35] was 39.6% and the viability, T/C [36] was 30.9%.
Work on `O=C(c1cc(Cc2n[nH]c(=O)c3ccccc23)ccc1F)N1CCN(C(=O)C2CC2)CC1` + COC1C(OC(N)=O)C(O)C(Oc2ccc3c(O)c(NC(=O)c4ccc(O)c(CC=C(C)C)c4)c(=O)oc3c2C)OC1(C)C yielded an IC50 (second compound 0.0316 µM) of over 10 µM, an IC50 (second compound 0.1 µM) of over 10 µM and an IC50 (second compound 0.316 µM) of over 10 µM. The IC50 (second compound 1 µM) was over 10 µM, the IC50 (second compound 3.16 µM) was over 10 µM and the IC50 (second compound 10 µM) was over 10 µM. For the same compound, the viability, T/C [1] was 103%, the viability, T/C [2] was 105% and the viability, T/C [3] was 96.9%. For the same compound, the viability, T/C [4] was 116%, the viability, T/C [5] was 93.7% and the viability, T/C [6] was 61.6%. It also gave a viability, T/C [7] of 106%, a viability, T/C [8] of 113% and a viability, T/C [9] of 106%. It also gave a viability, T/C [10] of 116%, a viability, T/C [11] of 94.6% and a viability, T/C [12] of 63.2%. The viability, T/C [13] was 110%, the viability, T/C [14] was 107% and the viability, T/C [15] was 99.4%. The viability, T/C [16] was 113%, the viability, T/C [17] was 98.3% and the viability, T/C [18] was 69.7%. It also gave a viability, T/C [19] of 121%, a viability, T/C [20] of 104% and a viability, T/C [21] of 104%. The viability, T/C [22] was 105%, the viability, T/C [23] was 97.5% and the viability, T/C [24] was 63.3%. It also gave a viability, T/C [25] of 115%, a viability, T/C [26] of 104% and a viability, T/C [27] of 109%. It also gave a viability, T/C [28] of 103%, a viability, T/C [29] of 94.7% and a viability, T/C [30] of 64.2%. It also gave a viability, T/C [31] of 106%, a viability, T/C [32] of 94% and a viability, T/C [33] of 95.6%. For the same compound, the viability, T/C [34] was 107%, the viability, T/C [35] was 99.2% and the viability, T/C [36] was 59.4%.
Work on `CCc1cc2c(N3CCc4c(cc(Cn5ccnc5)cc4-c4cn(C)nc4C(F)(F)F)C3=O)ccnc2c(OC)n1` + COC1C(OC(N)=O)C(O)C(Oc2ccc3c(O)c(NC(=O)c4ccc(O)c(CC=C(C)C)c4)c(=O)oc3c2C)OC1(C)C yielded an IC50 (second compound 0.0316 µM) of over 10 µM, an IC50 (second compound 0.1 µM) of over 10 µM and an IC50 (second compound 0.316 µM) of over 10 µM. It also gave an IC50 (second compound 1 µM) of over 10 µM, an IC50 (second compound 3.16 µM) of over 10 µM and an IC50 (second compound 10 µM) of over 10 µM. The viability, T/C [1] was 109%, the viability, T/C [2] was 107% and the viability, T/C [3] was 96.7%. The viability, T/C [4] was 86.4%, the viability, T/C [5] was 90.8% and the viability, T/C [6] was 72.8%. The viability, T/C [7] was 101%, the viability, T/C [8] was 96% and the viability, T/C [9] was 96.8%. The viability, T/C [10] was 96.8%, the viability, T/C [11] was 91.5% and the viability, T/C [12] was 81.5%. It also gave a viability, T/C [13] of 99.8%, a viability, T/C [14] of 104% and a viability, T/C [15] of 96.5%. For the same compound, the viability, T/C [16] was 96.4%, the viability, T/C [17] was 88.8% and the viability, T/C [18] was 82.1%. For the same compound, the viability, T/C [19] was 112%, the viability, T/C [20] was 104% and the viability, T/C [21] was 99%. The viability, T/C [22] was 93.7%, the viability, T/C [23] was 85.8% and the viability, T/C [24] was 76.6%. The viability, T/C [25] was 107%, the viability, T/C [26] was 102% and the viability, T/C [27] was 97.8%. The viability, T/C [28] was 86.8%, the viability, T/C [29] was 82.4% and the viability, T/C [30] was 72.2%. It also gave a viability, T/C [31] of 113%, a viability, T/C [32] of 99% and a viability, T/C [33] of 96%. It also gave a viability, T/C [34] of 86.5%, a viability, T/C [35] of 84% and a viability, T/C [36] of 72.9%.
